Experimental data reported in ChEMBL document CHEMBL3885881, “DrugMatrix”.

Species on record: Rattus norvegicus
Experiment: DrugMatrix - Regimen: Daily Repeat
Type: toxicity, organism-based, Sprague-Dawley
Set-up: regimen Daily Repeat, gender Male, age 6-8 weeks
Details: in vivo, iv, vehicle 100 % SALINE; for ABSOLUTE BASOPHIL / ABSOLUTE EOSINOPHIL / ABSOLUTE LYMPHOCYTE / ABSOLUTE MONOCYTE / ABSOLUTE SEGMENTED NEUTROPHIL / BASOPHIL / EOSINOPHIL / ERYTHROCYTE COUNT / HEMATOCRIT / HEMOGLOBIN / LEUKOCYTE COUNT / LYMPHOCYTE / MEAN CORPUSCULAR HEMOGLOBIN / MEAN CORPUSCULAR HEMOGLOBIN CONCENTRATION / MEAN CORPUSCULAR VOLUME / MONOCYTE / NEUTROPHIL / NUCLEATED RED BLOOD CELLS / PLATELET COUNT: tissue Blood; for ALANINE AMINOTRANSFERASE / ALBUMIN / ALKALINE PHOSPHATASE / ASPARTATE AMINOTRANSFERASE / BLOOD UREA NITROGEN / CARBON DIOXIDE / CHLORIDE / CHOLESTEROL / CREATINE PHOSPHOKINASE / CREATININE / GLUCOSE / LACTATE DEHYDROGENASE / LIPASE / PHOSPHORUS / POTASSIUM / SODIUM / TOTAL BILIRUBIN / TOTAL PROTEIN / URIC ACID: tissue Plasma
[1] = 0 mg/kg, 72 h, dose level Control, time 3 day
[2] = 0 mg/kg, 120 h, dose level Control, time 5 day
[3] = 23 mg/kg, 72 h, dose level High, time 3 day

## COC(=O)C[C@](O)(CCC(C)(C)O)C(=O)O[C@@H]1C(OC)=C[C@]23CCCN2CCc2cc4c(cc2[C@H]13)OCO4 [HARRINGTONINE]
[1]
  ABSOLUTE BASOPHIL: 0 CELLS/uL
  ABSOLUTE EOSINOPHIL: 15.33 CELLS/uL
  ABSOLUTE LYMPHOCYTE: 9513.5 CELLS/uL
  ABSOLUTE MONOCYTE: 94.67 CELLS/uL
  ABSOLUTE SEGMENTED NEUTROPHIL: 709.83 CELLS/uL
  BASOPHIL: 0%
  EOSINOPHIL: 0.17%
  ERYTHROCYTE COUNT: 5.63 x10E6/uL
  HEMATOCRIT: 34.63%
  HEMOGLOBIN: 13.6 G/DL
  LEUKOCYTE COUNT: 10.33 x10E3/uL
  LYMPHOCYTE: 92%
  MEAN CORPUSCULAR HEMOGLOBIN: 24.17 pg
  MEAN CORPUSCULAR HEMOGLOBIN CONCENTRATION: 39.28 G/DL
  MEAN CORPUSCULAR VOLUME: 61.57 fL
  MONOCYTE: 0.83%
  NEUTROPHIL: 7%
  NUCLEATED RED BLOOD CELLS: 0 /100WBC
  PLATELET COUNT: 903.17 x10E3/uL
  ALANINE AMINOTRANSFERASE: 49.33 u/L
  ALBUMIN: 4.27 G/DL
  ALKALINE PHOSPHATASE: 400.83 u/L
  ASPARTATE AMINOTRANSFERASE: 77.5 u/L
  BLOOD UREA NITROGEN: 16.33 mg/dL
  CARBON DIOXIDE: 29.33 mmol/L
  CHLORIDE: 99.67 MEQ/L
  CHOLESTEROL: 66.67 mg/dL
  CREATINE PHOSPHOKINASE: 275.33 u/L
  CREATININE: 0.18 mg/dL
  GLUCOSE: 163.83 mg/dL
  LACTATE DEHYDROGENASE: 125.33 u/L
  LIPASE: 10 u/L
  PHOSPHORUS: 12.12 mg/dL
  POTASSIUM: 6.68 MEQ/L
  SODIUM: 144.02 MEQ/L
  TOTAL BILIRUBIN: 0.18 mg/dL
  TOTAL PROTEIN: 5.87 G/DL
  URIC ACID: 1.63 mg/dL
[2]
  ABSOLUTE BASOPHIL: 0 CELLS/uL
  ABSOLUTE EOSINOPHIL: 48.83 CELLS/uL
  ABSOLUTE LYMPHOCYTE: 14562 CELLS/uL
  ABSOLUTE MONOCYTE: 138.67 CELLS/uL
  ABSOLUTE SEGMENTED NEUTROPHIL: 1733.83 CELLS/uL
  BASOPHIL: 0%
  EOSINOPHIL: 0.33%
  ERYTHROCYTE COUNT: 5.89 x10E6/uL
  HEMATOCRIT: 36.7%
  HEMOGLOBIN: 14.42 G/DL
  LEUKOCYTE COUNT: 16.48 x10E3/uL
  LYMPHOCYTE: 88.83%
  MEAN CORPUSCULAR HEMOGLOBIN: 24.52 pg
  MEAN CORPUSCULAR HEMOGLOBIN CONCENTRATION: 39.3 G/DL
  MEAN CORPUSCULAR VOLUME: 62.37 fL
  MONOCYTE: 0.67%
  NEUTROPHIL: 10.17%
  NUCLEATED RED BLOOD CELLS: 0 /100WBC
  PLATELET COUNT: 1076.5 x10E3/uL
  ALANINE AMINOTRANSFERASE: 44.67 u/L
  ALBUMIN: 4.23 G/DL
  ALKALINE PHOSPHATASE: 357.33 u/L
  ASPARTATE AMINOTRANSFERASE: 84.83 u/L
  BLOOD UREA NITROGEN: 15.5 mg/dL
  CARBON DIOXIDE: 27 mmol/L
  CHLORIDE: 99.5 MEQ/L
  CHOLESTEROL: 63.67 mg/dL
  CREATINE PHOSPHOKINASE: 331.33 u/L
  CREATININE: 0.18 mg/dL
  GLUCOSE: 167.33 mg/dL
  LACTATE DEHYDROGENASE: 320.17 u/L
  LIPASE: 9.17 u/L
  PHOSPHORUS: 12.05 mg/dL
  POTASSIUM: 6.54 MEQ/L
  SODIUM: 143.02 MEQ/L
  TOTAL BILIRUBIN: 0.2 mg/dL
  TOTAL PROTEIN: 6.23 G/DL
  URIC ACID: 2.07 mg/dL
[3]
  ABSOLUTE BASOPHIL: 0 CELLS/uL
  ABSOLUTE EOSINOPHIL: 0 CELLS/uL
  ABSOLUTE LYMPHOCYTE: 9185.67 CELLS/uL
  ABSOLUTE MONOCYTE: 0 CELLS/uL
  ABSOLUTE SEGMENTED NEUTROPHIL: 547.67 CELLS/uL
  BASOPHIL: 0%
  EOSINOPHIL: 0%
  ERYTHROCYTE COUNT: 5.37 x10E6/uL
  HEMATOCRIT: 32.9%
  HEMOGLOBIN: 12.87 G/DL
  LEUKOCYTE COUNT: 9.73 x10E3/uL
  LYMPHOCYTE: 94.33%
  MEAN CORPUSCULAR HEMOGLOBIN: 23.97 pg
  MEAN CORPUSCULAR HEMOGLOBIN CONCENTRATION: 39.1 G/DL
  MEAN CORPUSCULAR VOLUME: 61.2 fL
  MONOCYTE: 0%
  NEUTROPHIL: 5.67%
  NUCLEATED RED BLOOD CELLS: 0 /100WBC
  PLATELET COUNT: 883 x10E3/uL
  ALANINE AMINOTRANSFERASE: 44.67 u/L
  ALBUMIN: 3.57 G/DL
  ALKALINE PHOSPHATASE: 237.67 u/L
  ASPARTATE AMINOTRANSFERASE: 76 u/L
  BLOOD UREA NITROGEN: 14.67 mg/dL
  CARBON DIOXIDE: 24.67 mmol/L
  CHLORIDE: 101 MEQ/L
  CHOLESTEROL: 58.33 mg/dL
  CREATINE PHOSPHOKINASE: 746.33 u/L
  CREATININE: 0.17 mg/dL
  GLUCOSE: 168.33 mg/dL
  LACTATE DEHYDROGENASE: 240.33 u/L
  LIPASE: 8 u/L
  PHOSPHORUS: 11.7 mg/dL
  POTASSIUM: 5.94 MEQ/L
  SODIUM: 141.53 MEQ/L
  TOTAL BILIRUBIN: 0.2 mg/dL
  TOTAL PROTEIN: 5.2 G/DL
  URIC ACID: 1.93 mg/dL
